Data taken from article PMC4488483, “Reversible Oxidation of a Conserved Methionine in the Nuclear Export Sequence Determines Subcellular Distribution and Activity of the Fungal Nitrate Regulator NirA” (PLoS Genetics, 2015).

Experiments:
FmoB [1] = target: T1, FmoB (Aspergillus nidulans, UniProt Q5B5S0); assay: UV-visible absorbance spectrum of FAD saturated enzyme; format: binding; conditions: purified recombinant FmoB
T1 construct: gene ANIA_04110; complete fmoB gene from cDNA, expressed in E. coli, HIS-Select and size exclusion purified, ~60 kDa on SDS-PAGE, FAD saturated
T1 sequence (Q5B5S0 1-492): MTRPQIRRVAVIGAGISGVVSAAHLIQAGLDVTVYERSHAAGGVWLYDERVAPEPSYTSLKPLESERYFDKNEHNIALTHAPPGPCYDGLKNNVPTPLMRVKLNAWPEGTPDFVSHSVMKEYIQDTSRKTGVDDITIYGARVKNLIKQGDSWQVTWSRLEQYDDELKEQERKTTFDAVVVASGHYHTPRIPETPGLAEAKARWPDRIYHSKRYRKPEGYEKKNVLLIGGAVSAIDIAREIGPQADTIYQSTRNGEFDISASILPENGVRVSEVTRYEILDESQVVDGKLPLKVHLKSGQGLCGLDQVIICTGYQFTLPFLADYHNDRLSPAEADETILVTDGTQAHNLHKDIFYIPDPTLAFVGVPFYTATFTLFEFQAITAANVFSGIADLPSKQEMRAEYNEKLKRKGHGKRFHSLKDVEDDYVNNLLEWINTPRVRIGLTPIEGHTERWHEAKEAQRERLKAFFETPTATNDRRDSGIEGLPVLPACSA

FmoB [2] = target: T1, FmoB; assay: HPLC of L-methionine sulfoxide formed; format: biochemical; conditions: NADPH-dependent; up to 5 mM methionine; low rate
FmoB [3] = target: T1, FmoB; assay: NADPH consumption, absorbance at […] nm; format: biochemical; conditions: 2 uM FmoB, 200 uM NADPH, 2 mM substrate

`Cc1cc2nc3c(=O)[nH]c(=O)nc-3n(C[C@H](O)[C@H](O)[C@H](O)COP(=O)(O)OP(=O)(O)OC[C@H]3O[C@@H](n4cnc5c(N)ncnc54)[C@H](O)[C@@H]3O)c2cc1C` [FAD] was tested. Which “UV-visible absorbance spectrum of FAD saturated enzyme” value (FmoB [1]) did it give?
The value was “An UV-visible absorbance spectra of FAD saturated FmoB is shown as inset”.

Which “HPLC of L-methionine sulfoxide formed” value (FmoB [2]) does the source give for `CSCC[C@H](N)C(=O)O` [L-methionine] here?
The value was “it is able to convert free methionine to the sulfoxide form”.

`N[C@@H](CS)C(=O)O` [cysteine] was tested. Which “NADPH consumption, absorbance at 340 nm” value (FmoB [3]) did it give?
The value was “free cysteine, dithiothreitol (DTT) or β-mercaptoethanol were favourable substrates for FmoB”.
